In patent US4877876A, “Novel indenothiazole derivative and process for preparing the same” (Hisamitsu Pharmaceutical Co., Inc., priority 1986, dated 1989):
Structures can show the parent of a compound that is named as a salt.

tested on: Wistar-strained male rats; assay: Pharmacological test: ulcer inhibition against ethanol-induced ulcer in rats; assay type: in vivo; details: test compounds 50 mg/kg orally, one hour before 1 ml pure ethanol orally; compared with 0.5% tragacanth control
Procedure: Groups each consisting of 9 to 10 Wistar-strained male rats, each weighing about 200 g, were used in the test after their abstinence from food and water for 24 hours. Each test compound of this invention was administered in an amount of 50 mg/kg and a comparative medicine, "Neuer" (tradename: produced by Daiichi Pharmaceutical Co., Ltd.; effective component: centraxate) in an amount of 300 mg/kg. Each of the test compounds was administered orally to each rat of a first group and the comparative medicine to each rat of a second group one hour before oral administration of 1 ml of pure ethanol per rat. One hour later, each rat was sacrificed by exsanguination and its stomach was enucleated and fixed with 10 ml of 70% ethanol for about 30 minutes. A 0.5% tragacanth solution was administered to each rat of a third group. The ulcer was measured for length with naked eyes, and the test groups of rats were measured for their respective ulcer inhibition ratios in comparison with that for the third group.
Both the test compounds and the comparative medicine were each suspended or dissolved in a 0.5% tragacanth gum saline solution for use in the test. […] [formula]

SMILES | Ulcer inhibition ratio
c1ccc2c(c1)Cc1sc(NCCCCN3CCOCC3)nc1-2 [Example 92] | 83.4%
Clc1ccc2c(c1)-c1nc(NCCN3CCOCC3)sc1C2 [Example 59] | 85.0%
Fc1ccc2c(c1)Cc1sc(NCCCN3CCOCC3)nc1-2 [Example 1, 2-(3-morpholinopropyl)amino-6-fluoro-8H-indeno[1.2-d]thiazole] | 89.0%
Fc1ccc2c(c1)CC1SC(=NCCCN3CCOCC3)N=C21 (stereo not drawn) [Example 2] | 93.5%
CC1c2sc(NCCCN3CCOCC3)nc2-c2cccc(Cl)c21 (stereo not drawn) [Example 83 (dihydrochloride)] | 85.9%
Fc1ccc2c(c1)Cc1sc(NCCCN3CCOCC3)nc1-2 [Example 1 (dihydrochloride), 2-(3-morpholinopropyl)amino-6-fluoro-8H-indeno[1.2-d]thiazole] | 94.1%
Fc1ccc2c(c1)Cc1sc(NCCCN3CCOCC3)nc1-2 [Example 1 (maleic acid salt), 2-(3-morpholinopropyl)amino-6-fluoro-8H-indeno[1.2-d]thiazole] | 89.5%
c1ccc2c(c1)Cc1sc(NCCCN3CCOCC3)nc1-2 [Example 61] | 90.0%
CC(C)CNc1nc2c(s1)Cc1ccccc1-2 [Example 7] | 79.0%
